Patent US20200277378A1, “COMBINATION THERAPIES” (Novartis AG, priority 2017, published 2020)
Counter-ions that a name gives are not always drawn.

Tests used:
[1] = Clinical study of PDR001 in combination with a CXCR2 inhibitor (DLT evaluation); type: in vivo, human; settings: PDR001 400 mg Q4W + CXCR2 inhibitor 75 mg BID 2 weeks on/2 week off; seven patients dosed, two completed 56-day DLT period
Description: The primary objective of this study is to combine the PDR001 checkpoint inhibitor with the CXCR2 inhibitor, 6-chloro-3-((3,4-dioxo-2-(pentan-3-ylamino)cyclobut-1-en-1-yl)amino)-2-hydroxy-N-methoxy-N-methylbenzenesulfonamide choline salt, to identify the doses and schedule for combination therapy and to preliminarily assess the safety, tolerability, pharmacological and clinical activity of these combinations.
Patients are dosed on a flat scale and not by body weight or body surface area. Dosing of the CXCR2 inhibitor occurs immediately after completion of the PDR001 infusion during clinic visits. Patients are treated with 400 mg PDR001 every four weeks (i.e., Q4W). The CXCR2 inhibitor is administered orally twice daily, approximately 12 hours apart, with approximately 240 mL of water on an empty stomach at least 1 hour before or 2 hours after a meal, at about the same time every day. Patients are instructed not to chew the medication but to swallow it whole. The CXCR2 inhibitor is administered at a starting dose of 75 mg BID, two weeks on/two weeks off in each 28-day cycle or one week on/two weeks off in each 21-day cycle. If tolerated, the dose may be escalated to 150 mg BID two weeks on/two weeks off or one week on/two weeks off. […] Multiple dose levels below the MTD may be evaluated simultaneously in order to obtain PK and PD data across a range of doses and to establish the MTD/RDE. […]

[2] = system: neutrophils in whole human blood; assay: rhGROα-induced neutrophil shape change in whole human blood; type: cell-based
neutrophils = assay: rhGROα-induced neutrophil migration; type: cell-based
human CXCR2 receptor = human CXCR2 receptor (Homo sapiens, UniProt P25025); settings: membranes from CHO cells expressing human CXCR2 receptor
[3] = system: PBMCs from whole blood activated by SEB; type: cell-based, human
MC38 tumors = assay: PD-L1 expression on tumor-infiltrating dendritic cells and macrophages in MC38 colon carcinoma mouse model; type: in vivo, C57BL/6 mice; settings: combination BLZ945 200 mg/kg p.o. weekly + 5D12 10 mg/kg i.p. biweekly, day 9
Description: C57BL/6 mice (Charles River Laboratories) were implanted with 1×10^6 MC38 cells subcutaneously. When tumors were 70-100 mm3 in size, mice were randomized into groups of 8 animals and treated with an anti-TIM-3 antibody (5D12), a CSF-1R binding agent (BLZ945), both 5D12 antibody and BLZ945, or with vehicle control. Mice were dosed orally (p.o.) or intraperitoneally (i.p.). The groups of mice were dosed as follows:
Group 1) Vehicle p.o+antibody Isotype (mIgG1) i.p; Group 2) BLZ945 200 mg/kg p.o+antibody isotype (mIgG1) i.p; Group 3) Vehicle p.o+5D12 (mouse anti-TIM-3) 10 mg/kg i.p; Group 4) BLZ945 200 mg/kg p.o+5D12 (mouse anti-TIM-3) 10 mg/kg i.p. BLZ945 was dosed weekly and 5D12 was dosed biweekly.
At Day 9 post-treatment initiation, mice were sacrificed. Tumors were harvested and processed into single cell suspensions for analysis by flow cytometry. The single cell suspension was generated using a combination of dispase, collagenase and DNase 1. The tumor infiltrating immune cells were analyzed by flow cytometry. Samples were acquired on a BD Fortessa and data was analyzed using Flowjo. Populations were defined as follows: dendritic cells (CD45+CD11b+Ly6C-MHC-II+Ly6G-F480−) and macrophages (CD45+CD11b+Ly6C-MHC-II+Ly6G-F480+). Levels of PD-L1 expression were analyzed as the mean fluorescence intensity of signal in the PD-L1 channel. […]

Sequence of human CXCR2 receptor (P25025 whole entry): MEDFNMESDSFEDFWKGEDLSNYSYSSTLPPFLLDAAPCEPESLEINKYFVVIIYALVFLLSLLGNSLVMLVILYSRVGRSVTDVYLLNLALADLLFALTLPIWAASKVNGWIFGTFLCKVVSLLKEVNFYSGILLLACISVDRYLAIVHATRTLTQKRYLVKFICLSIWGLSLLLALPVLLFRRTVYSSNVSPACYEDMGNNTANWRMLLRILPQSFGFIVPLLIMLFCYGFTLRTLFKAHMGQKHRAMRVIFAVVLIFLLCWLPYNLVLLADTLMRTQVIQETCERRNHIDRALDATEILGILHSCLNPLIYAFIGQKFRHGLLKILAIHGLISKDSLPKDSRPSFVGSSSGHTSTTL

CCC(CC)Nc1c(Nc2ccc(Cl)c(S(=O)(=O)N(C)OC)c2O)c(=O)c1=O [6-chloro-3-((3,4-dioxo-2-(pentan-3-ylamino)cyclobut-1-en-1-yl)amino)-2-hydroxy-N-methoxy-N-methylbenzenesulfonamide choline salt]
dose limiting toxicity (DLT) [1]: no patient has developed a DLT
neutrophil shape change induced by rhGROα [2]: dose-dependent inhibition
rhGROα-induced neutrophil migration (neutrophils): dose-dependent inhibition
GROα and IL-8-stimulated [35S]GTPγS binding (human CXCR2 receptor): inhibits

PDR001: anti-PD-1 antibody molecule (PD-1 inhibitor, Novartis), also known as Spartalizumab
EC50 in SEB activation assay [3]: 0.5 µg/mL
EC50 ([3]; read-out: EC50 in SEB activation assay): 3.68 nM
dose limiting toxicity (DLT) [1]: no patient has developed a DLT

CNC(=O)c1cc(Oc2ccc3nc(N[C@@H]4CCCC[C@H]4O)sc3c2)ccn1 [BLZ945, 4-((2-(((1R,2R)-2-hydroxycyclohexyl)amino)benzo[d]thiazol-6-yl)oxy)-N-methylpicolinamide]
PD-L1 expression (mean fluorescence intensity) in F480+ and F480- tumor-infiltrating cells (MC38 tumors): enhancement

B1: LAG525: LAG-3 inhibitor (Novartis), anti-LAG-3 antibody molecule (antibody, chains of the INN, looked up, V domains shown)
VH: QVQLVQSGAEVKKPGASVKVSCKASGFTLTNYGMNWVRQARGQRLEWIGWINTDTGEPTYADDFKGRFVFSLDTSVSTAYLQISSLKAEDTAVYYCARNPPYYYGTNNAEAMDYWGQGTTVTVSS
VL: DIQMTQSPSSLSASVGDRVTITCSSSQDISNYLNWYLQKPGQSPQLLIYYTSTLHLGVPSRFSGSGSGTEFTLTISSLQPDDFATYYCQQYYNLPWTFGQGTKVEIK
IL-2 production in the SEB assay on titration ([3]; increasing doses of LAG525 with fixed 0.5 ug/ml each of PDR001 and GWN323): dose-responsive production of IL-2
